US6579899B1, “Composition for treatment of stress” (Massachusetts Institute of Technology, priority 1998, dated 2003)
Entries after “also recorded” stand apart in the source; their conditions may differ.

Legend:
[1] = body weight in four month weight loss program; type: in vivo, human
Description: (§1) A subgroup of obese individuals is identified, which individuals describe themselves as being unable to control their eating and who attempt to continue on a weight-reducing diet when experiencing emotional distress. […]
(§2) Objective measurements of emotional distress are made in some patients using the CES-D (Center for […] Depression Form) test, which measures current levels of emotional distress (Radloff, et al., The CES-D Scale: A Self Report Depression Scale for Research in the General Population Applied Psychological Measurement 1: 385-401, 1977); and the POMS (Profile of Mood States test, that assesses tension, depression, anger and confusion (McNair, et al., Profile of Mood States Manual;San Diego: Educational and Industrial Testing Service, 1971); both of these references are hereby incorporated by reference in their entirety. These tests are also given monthly during the treatment period. At the same time, patients also complete questionnaires that ask the patients to rate their appetite and hunger, and also to rate their tendency to eat in response to a variety of emotional and stressful triggers. The patients are also weighed monthly.

obese, stressed patients [2] = assay: CES-D test of current levels of emotional distress in patients; type: in vivo, human
Description: as §1, §2

obese, stressed patients [3] = assay: questionnaire rating appetite and hunger; type: in vivo, human; settings: 30 mg/day, during the treatment period, initial score 10.5
Description: as §1, §2

obese, stressed patients [4] = assay: questionnaire rating tendency to eat in response to emotional and stressful triggers; type: in vivo, human
Description: as §1, §2

rats = settings: cited from earlier work
obese, stressed patients [5] = assay: POMS (Profile of Mood States) test; type: in vivo, human; settings: 30 mg/day, during the study period, baseline 24
Method: A subgroup of obese individuals is identified, which individuals describe themselves as being unable to control their eating and who attempt to continue on a weight-reducing diet when experiencing emotional distress. These patients are treated for four months by enrolling them in a weight loss program which includes the administration of dexfenfluramine at 30 mg/day and which involves adherence to a reduced-calorie meal plan.
as §2

Question: For CCN[C@@H](C)Cc1cccc(C(F)(F)F)c1 [dexfenfluramine], which “ability of stressed overeaters to lose weight” value ([1]; 30 mg/day, four months, reduced-calorie meal plan) is on record?
Answer: The value was “enhance the ability of stressed overeaters to lose weight; also recorded: promotes the ability to control food intake and to lose weight”.

Question: And the “weight at the end of 4 months” value ([1]; patient eleven, 30 mg/day, starting weight 90.0 kg)?
Answer: The value was 82.6 kg.

Question: What about the “weight at the end of 4 months” value ([1]; patient eleven, 30 mg/day, starting weight 198 pounds) of the same compound?
Answer: Its value is 181.7 pounds.

Question: And the “weight after 4 months” value ([1]; patient six, 30 mg/day, starting weight 98.2 kg)?
Answer: Its value is 93.4 kg.

Question: And the “weight after 4 months” value ([1]; patient six, 30 mg/day, starting weight 216 pounds)?
Answer: The value was 205.5 pounds.

Question: And the “weight after 4 months” value ([1]; patient ten, 75 rising to 150 mg/day, starting weight 83.6 kg)?
Answer: Its value is 76.8 kg.

Question: And the “weight after 4 months” value ([1]; patient ten, 75 rising to 150 mg/day, starting weight 184 pounds)?
Answer: Its value is 169 pounds.

Question: And the “weight after 4 months” value ([1]; patient three, 50 rising to 150 mg/day, starting weight 137.3 kg)?
Answer: Its value is 130 kg.

Question: What about the “weight after 4 months” value ([1]; patient three, 50 rising to 150 mg/day, starting weight 302 pounds) of the same compound?
Answer: Its value is 286 pounds.

Question: And the “weight at the end of 4 months” value ([1]; patient twelve, 75 then 100 mg/day, starting weight 90.0 kg)?
Answer: The value was 82.6 kg.

Question: And the “weight at the end of 4 months” value ([1]; patient twelve, 75 then 100 mg/day, starting weight 198 pounds)?
Answer: Its value is 182 pounds.

Question: What about the “lowered CES-D score” value (obese, stressed patients [2]; 30 mg/day, fifth of six women, from 15) of the same compound?
Answer: Its value is 7.

Question: And the “lowered CES-D score” value (obese, stressed patients [2]; 30 mg/day, first of six women with above normal score at start, from 34)?
Answer: The value was 7.

Question: What about the “lowered CES-D score” value (obese, stressed patients [2]; 30 mg/day, fourth of six women, from 19) of the same compound?
Answer: Its value is 5.

Question: And the “lowered CES-D score” value (obese, stressed patients [2]; 30 mg/day, second of six women, from 37)?
Answer: The value was 8.

Question: What about the “lowered CES-D score” value (obese, stressed patients [2]; 30 mg/day, sixth of six women, from 15) of the same compound?
Answer: Its value is 3.

Question: What about the “indicators of stress” value (obese, stressed patients [2]; 30 mg/day, stress-induced overeaters) of the same compound?
Answer: The value was “reduces the indicators of stress”.

Question: What about the “lowered CES-D score” value (obese, stressed patients [2]; 30 mg/day, third of six women, from 22) of the same compound?
Answer: The value was 9.

Question: What about the “Mood Scores CES-D” value (obese, stressed patients [2]; patient eleven, 30 mg/day, Month 4, baseline 19) of the same compound?
Answer: The value was 4.

Question: What about the “Mood Scores CES-D” value (obese, stressed patients [2]; patient six, 30 mg/day, Month 4, baseline 5) of the same compound?
Answer: The value was 1.

Question: And the “Mood Scores CES-D” value (obese, stressed patients [2]; patient ten, 75 rising to 150 mg/day, Month 4, baseline 8)?
Answer: Its value is 2.

Question: What about the “Mood Scores CES-D” value (obese, stressed patients [2]; patient three, 50 rising to 150 mg/day, Month 4, baseline 23) of the same compound?
Answer: The value was 17.

Question: And the “Mood Scores CES-D” value (obese, stressed patients [2]; patient twelve, 75 then 100 mg/day, Month 4, baseline 29)?
Answer: Its value is 18.

Question: What about the “score on the appetite and hunger scale” value (obese, stressed patients [3]) of the same compound?
Answer: Its value is 5.0.

Question: And the “score on the emotional triggers to overeating report” value (obese, stressed patients [4]; 30 mg/day, end of the treatment period, from 23.4±9.8, ± standard deviations)?
Answer: The value was 8.6±8.5.

Question: What about the “Emotional Triggers” value (obese, stressed patients [4]; patient eleven, 30 mg/day, Month 4, baseline 30) of the same compound?
Answer: Its value is 7.

Question: What about the “Emotional Triggers” value (obese, stressed patients [4]; patient six, 30 mg/day, Month 4, baseline 23) of the same compound?
Answer: The value was 4.

Question: What about the “Emotional Triggers” value (obese, stressed patients [4]; patient ten, 75 rising to 150 mg/day, Month 4, baseline 14) of the same compound?
Answer: Its value is 2.

Question: What about the “Emotional Triggers” value (obese, stressed patients [4]; patient three, 50 rising to 150 mg/day, Month 4, baseline 34) of the same compound?
Answer: The value was 24.

Question: What about the “Emotional Triggers” value (obese, stressed patients [4]; patient twelve, 75 then 100 mg/day, Month 4, baseline 25) of the same compound?
Answer: Its value is 3.

Question: What about the “tail pressure/tail pinch-induced eating” value (rats; Rowland et al.) of the same compound?
Answer: The value was “decrease the eating behavior”.

Question: And the “DI50, inhibition of tail pressure-induced eating” value (rats; reported by Garattini, quoted from Rowland et al.)?
Answer: Its value is 0.6 mg/kg.

Question: And the “summed Tension, Depression, Anger and Confusion scores on the POMS test” value (obese, stressed patients [5])?
Answer: Its value is 16.8.
